In article PMC3271735 (Journal of the American Chemical Society, 2012):

What was measured:
Format in all cases: biochemical
Settings in all cases: 100 μM inhibitor
Sirt1 = molecular target: T1, Sirt1 (Homo sapiens, UniProt Q96EB6); assay: Sirt1 inhibition assay
T1 sequence (Q96EB6 1-747): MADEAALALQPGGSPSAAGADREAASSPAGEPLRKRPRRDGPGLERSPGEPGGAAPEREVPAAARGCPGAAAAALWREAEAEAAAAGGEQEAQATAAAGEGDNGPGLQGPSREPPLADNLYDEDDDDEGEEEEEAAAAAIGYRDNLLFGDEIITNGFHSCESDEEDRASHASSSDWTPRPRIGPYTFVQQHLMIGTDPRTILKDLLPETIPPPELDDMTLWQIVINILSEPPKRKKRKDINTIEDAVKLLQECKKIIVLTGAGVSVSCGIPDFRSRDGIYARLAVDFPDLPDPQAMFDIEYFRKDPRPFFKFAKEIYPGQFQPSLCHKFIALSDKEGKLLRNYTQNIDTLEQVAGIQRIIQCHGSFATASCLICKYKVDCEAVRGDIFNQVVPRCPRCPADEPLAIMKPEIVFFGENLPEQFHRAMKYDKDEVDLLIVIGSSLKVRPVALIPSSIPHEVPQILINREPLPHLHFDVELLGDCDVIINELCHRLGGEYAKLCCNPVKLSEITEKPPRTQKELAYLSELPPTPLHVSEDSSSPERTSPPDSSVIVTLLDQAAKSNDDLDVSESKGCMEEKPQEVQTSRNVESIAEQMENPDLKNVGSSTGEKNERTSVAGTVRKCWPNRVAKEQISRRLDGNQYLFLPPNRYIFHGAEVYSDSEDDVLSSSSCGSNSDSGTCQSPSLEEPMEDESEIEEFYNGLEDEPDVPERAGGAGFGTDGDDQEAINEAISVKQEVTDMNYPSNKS

Sirt2 = molecular target: T2, Sirt2 (Homo sapiens, UniProt Q8IXJ6); assay: Sirt2 inhibition assay
T2 sequence (Q8IXJ6 1-389): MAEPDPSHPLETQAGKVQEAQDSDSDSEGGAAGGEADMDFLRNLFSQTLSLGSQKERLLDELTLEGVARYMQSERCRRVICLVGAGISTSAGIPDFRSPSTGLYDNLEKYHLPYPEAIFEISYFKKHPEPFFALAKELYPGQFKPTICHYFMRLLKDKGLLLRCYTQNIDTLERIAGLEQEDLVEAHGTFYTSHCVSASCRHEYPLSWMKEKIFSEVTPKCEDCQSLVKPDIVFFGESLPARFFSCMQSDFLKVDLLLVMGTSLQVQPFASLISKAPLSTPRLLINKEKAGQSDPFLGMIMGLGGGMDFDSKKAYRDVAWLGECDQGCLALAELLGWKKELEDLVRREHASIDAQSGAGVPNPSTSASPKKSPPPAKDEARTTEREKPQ

Sirt3 = molecular target: T3, Sirt3 (Homo sapiens, UniProt Q9NTG7); assay: Sirt3 inhibition assay
T3 sequence (Q9NTG7 1-399): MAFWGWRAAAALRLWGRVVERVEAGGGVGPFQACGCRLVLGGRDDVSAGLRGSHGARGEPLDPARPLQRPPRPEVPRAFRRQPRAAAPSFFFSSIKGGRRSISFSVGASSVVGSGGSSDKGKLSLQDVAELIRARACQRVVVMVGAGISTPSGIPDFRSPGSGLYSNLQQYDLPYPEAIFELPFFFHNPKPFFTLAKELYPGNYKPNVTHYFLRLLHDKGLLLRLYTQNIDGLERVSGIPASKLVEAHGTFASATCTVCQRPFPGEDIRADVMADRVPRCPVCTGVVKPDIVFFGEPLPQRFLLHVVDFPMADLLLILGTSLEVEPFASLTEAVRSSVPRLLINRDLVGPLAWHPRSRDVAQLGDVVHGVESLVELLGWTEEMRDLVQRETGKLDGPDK

C[C@H](NC(=O)[C@H](CCCCN)NC(=O)CNC(=O)CNC(=O)[C@@H](NC(=O)[C@H](CO)NC(=O)[C@H](CCCCNC(=S)CCC(=O)O)NC(=O)[C@H](CCCNC(=N)N)NC(=O)[C@H](C)NC(=O)[C@@H](NC(=O)[C@H](CCC(N)=O)NC(=O)[C@@H](N)CCCCN)[C@@H](C)O)[C@@H](C)O)C(=O)O [H3K9TSu, KQTAR(TSuK)STGGKA]
does not inhibit: inhibition of Sirt1 at 100 μM (Sirt1) | inhibition of Sirt2 at 100 μM (Sirt2) | inhibition of Sirt3 at 100 μM (Sirt3)
